Measurements published in US20260034125A1, “N-PHENYL-1-(PHENYLSULFONYL)PIPERIDIN-4-AMINE DERIVATIVES AS CCR6 INHIBITORS” (priority 2023, published 2026).

Assays:
Assay type in all cases: cell-based
human CCR6 [1] = molecular target: T1, human CCR6 (Homo sapiens, UniProt P51684); assay: CHO-K1 CCR6 chemotaxis assay towards CCL20; conditions: relative -LogIC50; CHO-K1 cells overexpressing human CCR6, 100 ng/ml CCL20, Transwell, 4 h
T1 sequence (P51684 1-374): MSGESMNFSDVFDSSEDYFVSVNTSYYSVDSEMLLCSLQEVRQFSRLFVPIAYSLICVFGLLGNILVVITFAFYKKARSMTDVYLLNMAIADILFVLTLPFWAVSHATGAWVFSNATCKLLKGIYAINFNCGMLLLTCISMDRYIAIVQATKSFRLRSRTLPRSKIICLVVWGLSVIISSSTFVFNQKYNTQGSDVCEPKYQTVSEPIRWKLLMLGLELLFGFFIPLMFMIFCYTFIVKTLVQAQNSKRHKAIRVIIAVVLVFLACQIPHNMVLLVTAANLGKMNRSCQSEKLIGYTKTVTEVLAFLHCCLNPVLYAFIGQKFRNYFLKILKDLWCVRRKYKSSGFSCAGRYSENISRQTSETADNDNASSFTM
Excerpt: Cells overexpressing human CCR6 were used in the chemotaxis assay (DiscoverX, CAMP Hunter™ CHO-K1 CCR6 Gi Cell Line). Growth medium of these cells consisted of DMEM/F12, non-essential Amino acids (1×NEAA, Gibco 11140050), 10% FBS and 1× pen/strep (Gibco 15140). For the chemotaxis assay, Corning Transwell plates were used with a pore size of 8 μm (Corning 351164). Cells were harvested using trypsin and diluted to 4*10^6 cells/ml in chemotaxis medium (DMEM, 0.25% BSA, pen/strep). Compounds were four-fold serially diluted in DMSO. Further dilutions were made in chemotaxis medium. Cells were incubated with test compounds for 30 min at 37° C. prior to initiation of the assay (2*10^6 cells/ml). Final DMSO concentration in the assay was 0.2%. Wells of the Transwell plates were filled with 200 μl chemotaxis medium containing 100 ng/ml CCL20 (R&D systems 360-MP). 50 μl of the cell/compound suspension was added to the inserts of the Transwell plates (100,000 cells/insert). The Transwell plates were placed in an incubator at 37° C., 5% CO2 for 4 h. After 4 h, the number of migrated cells was quantified using CellTiter Glo (Promega). Percentage inhibition values were calculated based on the low and high signal obtained with 0.2% DMSO in chemotaxis medium without and with CCL20, respectively. The relative-LogIC50 was determined with GraphPad Prism 9 using a four-parameter dose-response model.

human CCR6 [2] = molecular target: T1, human CCR6; assay: Human CCR6-Cre reporter assay; set-up: The second construct contained the open reading frame of human CCR6 in the pUNO1 backbone; host or cells: 293 FT cells; conditions: relative -LogIC50; transfected 293 FT cells, 6 μM Forskolin, 6 nM CCL20, luciferase readout, 5h
Protocol: 293 FT cells were transfected with 2 constructs using TransIT-293 (Mirus). The first construct (pGL4.29, Promega) expressed the luciferase reporter gene luc2P in response to the binding of cAMP-induced CREB to the CRE element in its promoter. The second construct contained the open reading frame of human CCR6 in the pUNO1 backbone under the control of an enhanced CMV promoter (In VivoGen). 48h after transfection, cells were harvested and diluted to 750,000 cells/ml in culture medium (DMEM, 10% FBS, 1× pen/strep (Gibco 15140)). Compounds were 2.5-fold serially diluted in DMSO. Further dilutions were made in assay medium (DMEM, 10% FBS, 1× pen/strep, 6 μM Forskolin, 6 nM CCL20). 4 μl of the compound solution was added to a white MW384 plate, followed by 20 μl of the cell suspension. Final DMSO concentration in the assay was 0.1%. The MW384 plate was placed in an incubator at 37° C., 5% CO2 for 5h. Luciferase activity was determined by addition of 24 μl of a 2.5× diluted BriteLite luciferase solution (Perkin Elmer), followed by luminescence measurement using a VICTOR Plate reader (Perkin Elmer). […] The relative-LogIC50 was determined with GraphPad Prism 9 using a four-parameter dose-response model.

Human CD4+ T cells = assay: CD4+ T cell chemotaxis assay towards CCL20; conditions: relative -LogIC50, 150 ng/ml CCL20, Transwell, 3 h
Excerpt: Human CD4+ T cells were isolated from buffy coats of healthy donors using a CD4+ T Cell Isolation Kit (Miltenyi Biotec130-096-533). Isolated T cells were stimulated overnight with anti-CD3 and anti-CD28 antibodies (Biolegend 300314/302934) in growth medium (RPMI1640, 10% heat-inactivated FBS, 1× pen/strep (Gibco 15140)). For the chemotaxis assay, Corning Transwell plates were used with a pore size of 5 μm (Corning 3388). T cells were counted and diluted to 6*10^6 cells/ml in chemotaxis medium (RPMI1640, 1% BSA, pen/strep). Compounds were four-fold serially diluted in DMSO. Further dilutions were made in chemotaxis medium. Cells were incubated with test compounds for 30 min at 37° C. prior to initiation of the assay (3*10^6 cells/ml). Final DMSO concentration in the assay was 0.2%. Wells of the Transwell plates were filled with 200 μl chemotaxis medium containing 150 ng/ml CCL20 (R&D systems 360-MP). 50 μl of the cell/compound suspension was added to the inserts of the Transwell plates (150,000 cells/insert). The Transwell plates were placed in an incubator at 37° C., 5% CO2 for 3 h. After 3 h, the number of migrated cells was quantified using CellTiter Glo (Promega). Percentage inhibition values were calculated based on the low and high signal obtained with 0.2% DMSO in chemotaxis medium without and with CCL20, respectively. The relative −LogIC50 was determined with GraphPad Prism 9 using a four-parameter dose-response model.

Compound	IC50 (human CCR6 [1]) [nM]	IC50 (human CCR6 [2]) [nM]	IC50 (Human CD4+ T cells) [nM]
N#Cc1c[nH]c2ccc(-c3ccc(S(=O)(=O)N4CCC(Nc5ccc(C6CC6)cc5)CC4)cc3)cc12 [Example 12, 5-[4-({4-[(4-cyclopropylphenyl)Amino]piperidin-1-yl}sulfonyl)phenyl]-1H-indole-3-carbonitrile]	251	251	
N#CC1(c2ccc(NC3CCN(S(=O)(=O)c4ccc(-c5ccc6n[nH]c(=O)n6c5)cc4)CC3)nc2)CC1 [Example 35, 1-(6-{[1-(4-{3-oxo-2H,3H-[1,2,4]triazolo[4,3-a]pyridin-6-yl}benzenesulfonyl)piperidin-4-yl]amino}pyridin-3-yl)cyclopropane-1-carbonitrile]		398	1580
CC(C)c1nnc2ccc(-c3ccc(S(=O)(=O)[C@H]4CC[C@H](Nc5ccc(C6(C#N)CC6)cn5)CC4)cc3)cn12 [Example 30, 1-(6-{[(trans)-4-{4-[3-(propan-2-yl)-[1,2,4]triazolo[4,3-a]pyridin-6-yl]benzenesulfonyl}cyclohexyl]amino}pyridin-3-yl)cyclopropane-1-carbonitrile]		200	251
Cc1nnc2ccc(-c3ccc(S(=O)(=O)N4CCC(Nc5ccc(C6(C(F)(F)F)CC6)cc5)CC4)cc3)cn12 [Example 42, 1-(4-{3-methyl-[1,2,4]triazolo[4,3-a]pyridin-6-yl}benzenesulfonyl)-N-{4-[1-(trifluoromethyl)cyclopropyl]phenyl}piperidin-4-amine]		126	6.31
Cc1cc(-c2ccc(S(=O)(=O)N3CCC(Nc4ccc(C5(C#N)CC5)cn4)CC3)cc2)cn2c(C(C)C)nnc12 [Example 32, 1-{6-[(1-{4-[8-methyl-3-(propan-2-yl)-[1,2,4]triazolo[4,3-a]pyridin-6-yl]benzenesulfonyl}piperidin-4-yl)amino]pyridin-3-yl}cyclopropane-1-carbonitrile]		200	126
Cc1n[nH]c2ncc(-c3ccc(S(=O)(=O)[C@H]4CC[C@H](Nc5ccc(C6(C(F)(F)F)CC6)cc5)CC4)cc3)cc12 [Example 22, N-[(trans)-4-(4-{3-methyl-1H-pyrazolo[3,4-b]pyridin-5-yl}benzenesulfonyl)cyclohexyl]-4-[1-(trifluoromethyl)cyclopropyl]aniline]		100	2.51
CC(C)c1nnc2ccc(-c3ccc(S(=O)(=O)N4CCC(Nc5ccc(C6(C#N)CC6)cn5)CC4)cc3)cn12 [Example 31, 1-{6-[(1-{4-[3-(propan-2-yl)-[1,2,4]triazolo[4,3-a]pyridin-6-yl]benzenesulfonyl}piperidin-4-yl)amino]pyridin-3-yl}cyclopropane-1-carbonitrile]		200	79.4
O=c1[nH]nc2ccc(-c3ccc(S(=O)(=O)N4CCC(Nc5ccc(C6(C(F)(F)F)CC6)cc5)CC4)cc3)cn12 [Example 43, 6-(4-{[4-({4-[1-(trifluoromethyl)cyclopropyl]phenyl}amino)piperidin-1-yl]sulfonyl}phenyl)-2H,3H-[1,2,4]triazolo[4,3-a]pyridin-3-one]		100	12.6

The next lines start with the values.

IC50 (human CCR6 [1]) [nM]	IC50 (human CCR6 [2]) [nM]	IC50 (Human CD4+ T cells) [nM]	Compound
63.1	79.4		Cc1cnc2ccc(-c3ccc(S(=O)(=O)N4CCC(Nc5ccc(C6(C(F)(F)F)CC6)cc5)CC4)cc3)cn12 [Example 3, 1-(4-{3-methylimidazo[1,2-a]pyridin-6-yl}benzenesulfonyl)-N-{4-[1-(trifluoromethyl)cyclopropyl]phenyl}piperidin-4-amine]
5.01	20		N#Cc1c[nH]c2ccc(-c3ccc(S(=O)(=O)[C@H]4CC[C@H](Nc5ccc(C6(C(F)(F)F)CC6)cc5)CC4)cc3)cc12 [Example 16, 5-(4-{[trans-4-({4-[1-(trifluoromethyl)cyclopropyl]phenyl}Amino)cyclohexyl]sulfonyl}phenyl)-1H-indole-3-carbonitrile]
39.8	100		O=S(=O)(c1ccc(-c2ccc3nccn3c2)cc1)[C@H]1CC[C@H](Nc2ccc(C3(C(F)(F)F)CC3)cc2)CC1 [Example 17, N-[trans-4-(4-{imidazo[1,2-a]pyridin-6-yl}benzenesulfonyl)cyclohexyl]-4-[1-(trifluoromethyl)cyclopropyl]aniline]
251	63.1		N#Cc1c[nH]c2ccc(-c3ccc(S(=O)(=O)[C@H]4CC[C@H](Nc5ccc(C6COC6)cc5)CC4)cc3)cc12 [Example 19, 5-(4-{[trans-4-{[4-(oxetan-3-yl)phenyl]Amino}cyclohexyl]sulfonyl}phenyl)-1H-indole-3-carbonitrile]
	63.1	3.98	CC(C)c1nnc2cnc(-c3ccc(S(=O)(=O)N4CCC(Nc5ccc(C6(C(F)(F)F)CC6)cc5)CC4)cc3)cn12 [Example 41, 1-{4-[3-(propan-2-yl)-[1,2,4]triazolo[4,3-a]pyrazin-6-yl]benzenesulfonyl}-N-{4-[1-(trifluoromethyl)cyclopropyl]phenyl}piperidin-4-amine]
	100	5.01	O=S(=O)(c1ccc(-c2ccc3nccn3c2)cc1)N1CCC(Nc2ccc(C3(C(F)(F)F)CC3)cn2)CC1 [Example 37, N-[1-(4-{imidazo[1,2-a]pyridin-6-yl}benzenesulfonyl)piperidin-4-yl]-5-[1-(trifluoromethyl)cyclopropyl]pyridin-2-amine]
	31.6	3.16	CC(C)c1nnc2ccc(-c3ccc(S(=O)(=O)N4CCC(Nc5ccc(C6(C(F)(F)F)CC6)cn5)CC4)cc3)cn12 [Example 36, N-(1-{4-[3-(propan-2-yl)-[1,2,4]triazolo[4,3-a]pyridin-6-yl]benzenesulfonyl}piperidin-4-yl)-5-[1-(trifluoromethyl)cyclopropyl]pyridin-2-amine]
	63.1	1.58	Cc1c[nH]c2ncc(-c3ccc(S(=O)(=O)[C@H]4CC[C@H](Nc5ccc(C6(C(F)(F)F)CC6)cc5)CC4)cc3)cc12 [Example 21, N-[(trans)-4-(4-{3-methyl-1H-pyrrolo[2,3-b]pyridin-5-yl}benzenesulfonyl)cyclohexyl]-4-[1-(trifluoromethyl)cyclopropyl]aniline]
